According to US20170065564A1, “BIS-CYCLIC GUANIDINE COMPOUND COMPOSITIONS, METHODS OF USE AND TREATMENT THEREOF” (University of South Florida, priority 2014, published 2017):
Converted amounts (≈) assume the structure as drawn.

Experiments:
[1] = test system: Staphylococcus aureus biofilm; experiment: Minimum biofilm eradication concentration (MBEC) assay; type: cell-based; conditions: 24 h biofilm, purified compound
Procedure: (§1) The minimum biofilm eradication concentration (MBEC) was determined in 96-well microtiter plates as follows. Broth cultures of ESKAPE strains were grown using the conditions described above. Biofilms for each of the ESKAPE pathogens were generated from these as we have previously described for S. aureus, however human serum was not used for non-staphylococcal organisms.^44 46 For all organisms, biofilms were developed by standardizing an overnight culture into fresh media to an OD600 of 0.5 and adding 150 μl into each well of a 96-well microtiter plate. […] These cultures were incubated at 37° C. overnight alongside no drug controls. After 24 hours, the media was removed from wells and the biofilm resuspended in phosphate buffered saline (PBS). Cultures were mixed by vigorous pipetting, before being serially diluted in PBS, and plated in duplicate on relevant agar. Plates were incubated at 37° C. for 24 hours, and CFUs determined by enumeration. Each analysis was performed using three technical replicates, and antibiofilm activity was determined by comparing treated to untreated samples.

[2] = test system: Enterobacter cloacae biofilm; experiment: as above; type: cell-based; conditions: 24 h biofilm, purified compound
Procedure: as §1

[3] = test system: Enterococcus faecium; experiment: MIC micro broth dilution assay; type: cell-based; conditions: for MIC: Enterococcus faecium
How it was run: (§2)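 Multidrug-resistant clinical ESKAPE isolates were grown overnight (Gram-positives in TSB, Gram-negatives in LB), diluted 1:1,000 and exposed to decreasing compound concentrations in DMF (≤2.0% DMF).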

[4] = test system: Enterobacter cloacae; experiment: MIC micro broth dilution assay; type: cell-based; conditions: for MIC: Enterobacter cloacae
How it was run: as §2

[5] = test system: A. baumannii; experiment: Resistance serial passage assay; type: cell-based, Acinetobacter baumannii; conditions: 8 passages, concentration doubled each day
Procedure: ESKAPE pathogens were grown overnight in liquid media at 37° C. These cultures were then diluted 1:100 in fresh media, and seeded into a 96-well plate. Lead bis-cyclic guanidines or control agents were added to respective wells at half MIC concentrations. Plates were then incubated for 24 hours at 37° C., with bacteria removed from these cultures on the following day, to inoculate fresh media (1:100 dilution) containing compounds at a 2-fold higher concentrations. These were then grown overnight, and the procedure repeated for a total of eight days. […] Each experiment was performed in triplicate, yielding identical results.

[6] = test system: Enterococcus faecium; experiment: Minimal bactericidal concentration (MBC) assay; type: cell-based; conditions: Enterococcus faecium, purified compound; read-out: MBC90
Procedure: (§3) Briefly, compound was washed by centrifugation and serial dilution, before plating on Tryptic Soy Agar (TSA). Plates were incubated for 24 hours at 37° C. and cell viability assessed by determining CFU/ml at each concentration, for every compound. Percent recovery was then determined compared to CFU/ml from no drug controls. All concentrations and controls were tested using three biological replicates, alongside two technical replicates for each data point.

[7] = test system: Enterobacter cloacae; experiment: Minimal bactericidal concentration (MBC) assay; type: cell-based; conditions: Enterobacter cloacae; purified compound; read-out: MBC90
Procedure: as §3

[8] = test system: Klebsiella pneumoniae; experiment: Minimal bactericidal concentration (MBC) assay; type: cell-based; conditions: Klebsiella pneumoniae, purified compound; read-out: MBC90
Procedure: as §3

[9] = test system: Staphylococcus aureus; experiment: Minimal bactericidal concentration (MBC) assay; type: cell-based; conditions: Staphylococcus aureus, purified compound; read-out: MBC90
Procedure: as §3

[10] = test system: Pseudomonas aeruginosa; experiment: Minimal bactericidal concentration (MBC) assay; type: cell-based; conditions: Pseudomonas aeruginosa; purified compound; read-out: MBC90
Procedure: as §3

[11] = test system: Acinetobacter baumannii; experiment: Minimal bactericidal concentration (MBC) assay; type: cell-based; conditions: Acinetobacter baumannii, purified compound; read-out: MBC90
Procedure: as §3

[12] = test system: Klebsiella pneumoniae; experiment: MIC micro broth dilution assay; type: cell-based; conditions: for MIC: Klebsiella pneumoniae
How it was run: as §2

[13] = test system: Staphylococcus aureus; experiment: MIC micro broth dilution assay; type: cell-based; conditions: for MIC: Staphylococcus aureus
How it was run: as §2

Question: For `CCCCCCCN1C(=N)N(CCCC[C@H]2CNC(=N)N2CCCCC2CCCCC2)C[C@@H]1CC1CCCCC1` [Compound 16], which MBEC50 [1] is on record?
Answer: Its MBEC50 is 7.58 µM.

Question: And the MBEC50 [2]?
Answer: The MBEC50 was 12.68 µM.

Question: And the “stacked score activity, 100/MIC, E” value ([3]; E. faecium)?
Answer: Its value is 33.

Question: And the MIC ([3]; E. faecium isolate 1406)?
Answer: Its MIC is 2 µM (≈ 1.11 µg/mL).

Question: What about the MIC ([3]; E. faecium isolate 1407) of the same compound?
Answer: Its MIC is 2 µM (≈ 1.11 µg/mL).

Question: And the MIC ([3]; E. faecium isolate 1432)?
Answer: The MIC was 2 µM (≈ 1.11 µg/mL).

Question: And the MIC ([3]; E. faecium isolate 1438)?
Answer: Its MIC is 2 µM (≈ 1.11 µg/mL).

Question: And the MIC ([3]; E. faecium isolate 1439)?
Answer: The MIC was 2 µM (≈ 1.11 µg/mL).

Question: What about the MIC ([3]; E. faecium isolate 1443) of the same compound?
Answer: Its MIC is 2 µM (≈ 1.11 µg/mL).

Question: What about the MIC ([3]; E. faecium isolate 1444) of the same compound?
Answer: The MIC was 2 µM (≈ 1.11 µg/mL).

Question: And the MIC ([3]; E. faecium isolate 1449)?
Answer: Its MIC is 2 µM (≈ 1.11 µg/mL).

Question: What about the MIC ([3]; E. faecium isolate 1450) of the same compound?
Answer: The MIC was 2 µM (≈ 1.11 µg/mL).

Question: What about the MIC ([3]; E. faecium isolate 1451) of the same compound?
Answer: Its MIC is 2 µM (≈ 1.11 µg/mL).

Question: What about the MIC ([3]; purified compound, Table 1) of the same compound?
Answer: Its MIC is 1.62 µM (≈ 0.902 µg/mL).

Question: What about the “stacked score activity, 100/MIC, E” value ([4]; E. cloacae) of the same compound?
Answer: The value was 20.

Question: What about the MIC ([4]; E. cloacae isolate 1404) of the same compound?
Answer: Its MIC is 2 µM (≈ 1.11 µg/mL).

Question: What about the MIC ([4]; E. cloacae isolate 1405) of the same compound?
Answer: Its MIC is 2 µM (≈ 1.11 µg/mL).

Question: And the MIC ([4]; E. cloacae isolate 1430)?
Answer: Its MIC is 2 µM (≈ 1.11 µg/mL).

Question: And the MIC ([4]; E. cloacae isolate 1431)?
Answer: Its MIC is 2 µM (≈ 1.11 µg/mL).

Question: And the MIC ([4]; E. cloacae isolate 1445)?
Answer: The MIC was 2 µM (≈ 1.11 µg/mL).

Question: What about the MIC ([4]; E. cloacae isolate 1446) of the same compound?
Answer: Its MIC is 5 µM (≈ 2.78 µg/mL).

Question: What about the MIC ([4]; E. cloacae isolate 1447) of the same compound?
Answer: Its MIC is 2 µM (≈ 1.11 µg/mL).

Question: And the MIC ([4]; E. cloacae isolate 1448)?
Answer: Its MIC is 2 µM (≈ 1.11 µg/mL).

Question: And the MIC ([4]; E. cloacae isolate 1454)?
Answer: The MIC was 2 µM (≈ 1.11 µg/mL).

Question: And the MIC ([4]; E. cloacae isolate 1455)?
Answer: Its MIC is 2 µM (≈ 1.11 µg/mL).

Question: What about the MIC ([4]; purified compound, Table 1) of the same compound?
Answer: The MIC was 1.62 µM (≈ 0.902 µg/mL).

Question: What about the “concentration inhibiting 90% of isolates” value ([4]; panel of E. cloacae clinical isolates) of the same compound?
Answer: The value was 2 µM.

Question: What about the “increase in MIC after serial passage” value [5] of the same compound?
Answer: The value was 8 fold.

Question: And the MBC [6]?
Answer: The MBC was 2.87 µM (≈ 1.6 µg/mL).

Question: And the MBC [7]?
Answer: Its MBC is 9.55 µM (≈ 5.32 µg/mL).

Question: What about the MBC [8] of the same compound?
Answer: The MBC was 4.45 µM (≈ 2.48 µg/mL).

Question: And the MBC [9]?
Answer: The MBC was 3.88 µM (≈ 2.16 µg/mL).

Question: And the MBC [10]?
Answer: Its MBC is 3.99 µM (≈ 2.22 µg/mL).

Question: What about the MBC [11] of the same compound?
Answer: Its MBC is 2.77 µM (≈ 1.54 µg/mL).

Question: What about the “stacked score activity, 100/MIC, K” value ([12]; K. pneumoniae) of the same compound?
Answer: Its value is 20.

Question: And the MIC ([12]; K. pneumoniae isolate 1408)?
Answer: Its MIC is 2 µM (≈ 1.11 µg/mL).

Question: What about the MIC ([12]; K. pneumoniae isolate 1409) of the same compound?
Answer: The MIC was 3 µM (≈ 1.67 µg/mL).

Question: And the MIC ([12]; K. pneumoniae isolate 1410)?
Answer: The MIC was 3 µM (≈ 1.67 µg/mL).

Question: And the MIC ([12]; K. pneumoniae isolate 1411)?
Answer: The MIC was 2 µM (≈ 1.11 µg/mL).

Question: What about the MIC ([12]; K. pneumoniae isolate 1412) of the same compound?
Answer: The MIC was 3 µM (≈ 1.67 µg/mL).

Question: And the MIC ([12]; K. pneumoniae isolate 1413)?
Answer: The MIC was 3 µM (≈ 1.67 µg/mL).

Question: What about the MIC ([12]; K. pneumoniae isolate 1433) of the same compound?
Answer: The MIC was 2 µM (≈ 1.11 µg/mL).

Question: And the MIC ([12]; K. pneumoniae isolate 1434)?
Answer: The MIC was 5 µM (≈ 2.78 µg/mL).

Question: And the MIC ([12]; K. pneumoniae isolate 1440)?
Answer: The MIC was 3 µM (≈ 1.67 µg/mL).

Question: What about the MIC ([12]; K. pneumoniae isolate 1441) of the same compound?
Answer: The MIC was 2 µM (≈ 1.11 µg/mL).

Question: And the MIC ([12]; purified compound, Table 1)?
Answer: Its MIC is 1.62 µM (≈ 0.902 µg/mL).

Question: And the “concentration inhibiting 90% of isolates” value ([12]; panel of K. pneumoniae clinical isolates)?
Answer: Its value is 5 µM.

Question: And the “stacked score activity, 100/MIC, S” value ([13]; S. aureus)?
Answer: Its value is 20.

Question: What about the MIC ([13]; S. aureus isolate 542) of the same compound?
Answer: Its MIC is 2 µM (≈ 1.11 µg/mL).

Question: What about the MIC ([13]; S. aureus isolate 626) of the same compound?
Answer: Its MIC is 2 µM (≈ 1.11 µg/mL).

Question: What about the MIC ([13]; S. aureus isolate 635) of the same compound?
Answer: The MIC was 2 µM (≈ 1.11 µg/mL).

Question: And the MIC ([13]; S. aureus isolate 648)?
Answer: The MIC was 2 µM (≈ 1.11 µg/mL).

Question: And the MIC ([13]; S. aureus isolate 690)?
Answer: Its MIC is 2 µM (≈ 1.11 µg/mL).

Question: And the MIC ([13]; S. aureus isolate 693)?
Answer: Its MIC is 2 µM (≈ 1.11 µg/mL).

Question: What about the MIC ([13]; S. aureus isolate 715) of the same compound?
Answer: The MIC was 2 µM (≈ 1.11 µg/mL).

Question: And the MIC ([13]; S. aureus isolate 728)?
Answer: Its MIC is 2 µM (≈ 1.11 µg/mL).

Question: What about the MIC ([13]; S. aureus isolate 834) of the same compound?
Answer: Its MIC is 2 µM (≈ 1.11 µg/mL).

Question: And the MIC ([13]; S. aureus isolate 1043)?
Answer: The MIC was 2 µM (≈ 1.11 µg/mL).

Question: What about the MIC ([13]; S. aureus isolate 1049) of the same compound?
Answer: Its MIC is 2 µM (≈ 1.11 µg/mL).

Question: What about the MIC ([13]; purified compound, Table 1) of the same compound?
Answer: The MIC was 1.62 µM (≈ 0.902 µg/mL).
